Reference: patent US20120202831A1, “Pharmaceutical Formulation” (SANOFI, priority 2009, published 2012)
Like-named read-outs stand apart in the source and are kept apart here.

What was measured:
Type in all cases: physicochemical
[1] = solubility of the compound of formula (I) in media and formulations
[2] = chemical stability of formulations: impurity content by HPLC over time; details: versus PS80 and PS80/ethanol formulations; especially 25° C./60% RH and 30° C./65% RH
Procedure: A study of chemical stability by measuring the impurity content by high performance liquid chromatography (HPLC) was carried out on the formulations making it possible to achieve the target solubility.

[3] = physical stability of the perfusion solution (no visible precipitation); details: perfusion solution from compound of formula (I) in PEG alone

In the case of `CC(C)(C)NC(=O)Nc1nc2nc(Nc3ccc4nsnc4c3)ncc2cc1-c1c(Cl)cccc1Cl` [compound of formula (I)], the solubility ([1]; medium: PEG 400) was 9.5 mg/g, the solubility ([1]; medium: ethanol) was 3.8 mg/g and the solubility ([1]; medium: propylene glycol) was 1 mg/g. The solubility ([1]; medium: tert-butanol) was 1.2 mg/g, the solubility ([1]; medium: water) was under 0.006 mg/g and the solubility ([1]; organic solvent or mixture, dilution in PEG alone, read-out: solubility) was at most 7000 µg/mL. The “chemical stability compared between formulations” value [2] was “degrades less rapidly” and the “physical stability of the perfusion solution” value [3] was under 24 h.
